{"source": "patent US12708116B2", "about": "“Herbicidal compositions comprising 2,4-D” (BASF SE, priority 2023, dated 2026)", "assay_in_all_cases": "Post-emergence application in field trials", "key": {"ECHCG": {"tested_on": "ECHCG", "format": "in vivo, Echinochloa crus-galli"}, "ZEAMX": {"tested_on": "ZEAMX", "conditions": "growth stage 15-16"}, "HORVW": {"tested_on": "HORVW", "conditions": "growth stage 23-29, height 20-25 cm"}, "DIGSA": {"tested_on": "DIGSA"}, "CYPES": {"tested_on": "CYPES", "conditions": "21 DAT, water volume 140 l/ha"}, "DATST": {"tested_on": "DATST", "conditions": "Example 6; 21 DAT; g ai/ha A-1 12.5, B-5 1066, C-11 400"}, "SETVE": {"tested_on": "SETVE", "conditions": "Example 6, g ai/ha A-1 12.5, B-5 1066, C-11 400, growth stage 21-23, height 10-15 cm"}, "SETVI": {"tested_on": "SETVI", "format": "in vivo, Setaria viridis", "conditions": "15 DAT; g ai/ha A-1 12.5, B-5 1066, C-10 840; growth stage 13-19; height 2-18 cm; water volume 140 l/ha"}, "AMAPA": {"tested_on": "AMAPA", "conditions": "14 DAT, growth stage 12-24, height 5-30 cm, water volume 140 l/ha"}, "[1]": {"conditions": "Example 11, 21 DAT, g ai/ha A-1 12.5, B-4 1066, C-4 12.5, height 50-60 cm"}, "[2]": {"conditions": "Example 11, 21 DAT, g ai/ha A-1 12.5, B-4 1066, C-4 12.5"}, "[3]": {"conditions": "Example 7, 28 DAT, g ai/ha A-1 12.5, B-4 1066, C-11 400, growth stage 23-30, height 15-20 cm"}, "[4]": {"conditions": "Example 7, 28 DAT, g ai/ha A-1 12.5, B-4 1066, C-11 400, height 50-60 cm"}, "[5]": {"conditions": "Example 7, 28 DAT, g ai/ha A-1 12.5, B-4 1066, C-11 400"}, "[6]": {"conditions": "Example 9, 28 DAT, g ai/ha A-1 12.5, B-4 1066, C-12 252, growth stage 23-30, height 15-20 cm"}, "[7]": {"conditions": "Example 9, 28 DAT, g ai/ha A-1 12.5, B-4 1066, C-12 252, height 50-60 cm"}, "[8]": {"conditions": "Example 9, 21 DAT, g ai/ha A-1 12.5, B-4 1066, C-12 252"}}, "data": [{"smiles": "C#CCN1C(=O)C(F)(F)Oc2cc(F)c(-n3c(=O)n(C)c(=S)n(C)c3=O)cc21", "note": "[C-4, trifludimoxazin]", "values": [{"measurement": "% Herbicidal activity", "setting": "ECHCG; Example 10, 21 DAT, g ai/ha A-1 12.5, B-5 1066, C-4 12.5, growth stage 23-30, height 15-20 cm", "result": 30, "unit": "%"}, {"measurement": "% Herbicidal activity", "setting": "ZEAMX; [1]", "result": 30, "unit": "%"}, {"measurement": "% Herbicidal activity", "setting": "HORVW; Example 10, 21 DAT, g ai/ha A-1 12.5, B-5 1066, C-4 12.5", "result": 30, "unit": "%"}, {"measurement": "% Herbicidal activity", "setting": "HORVW; [2]", "result": 20, "unit": "%"}]}, {"smiles": "CP(=O)(O)CCC(N)C(=O)O", "note": "(centres unmarked) [C-11, glufosinate-ammonium]", "values": [{"measurement": "% Herbicidal activity", "setting": "ECHCG; Example 6, 7 DAT, g ai/ha A-1 12.5, B-5 1066, C-11 400, growth stage 23-30, height 15-20 cm", "result": 30, "unit": "%"}, {"measurement": "% Herbicidal activity", "setting": "ECHCG; Example 6, 28 DAT, g ai/ha A-1 12.5, B-5 1066, C-11 400, growth stage 23-30, height 15-20 cm", "result": 70, "unit": "%"}, {"measurement": "% Herbicidal activity", "setting": "ECHCG; [3]", "result": 60, "unit": "%"}, {"measurement": "% Herbicidal activity", "setting": "DIGSA; 21 DAT, g ai/ha A-1 12.5, B-5 1066, C-11 655, height 2-8 cm, water volume 140 l/ha", "result": 49, "unit": "%"}, {"measurement": "% Herbicidal activity", "setting": "DIGSA; 21 DAT, g ai/ha A-1 25, B-5 1066, C-11 655, height 2-8 cm, water volume 140 l/ha", "result": 49, "unit": "%"}, {"measurement": "% Herbicidal activity", "setting": "DIGSA; 21 DAT, g ai/ha A-1 50, B-5 1066, C-11 655, height 2-8 cm, water volume 140 l/ha", "result": 49, "unit": "%"}, {"measurement": "% Herbicidal activity", "setting": "DIGSA; Example 6, 7 DAT, g ai/ha A-1 12.5, B-5 1066, C-11 400, growth stage 21-22, height 15-20 cm", "result": 25, "unit": "%"}, {"measurement": "% Herbicidal activity", "setting": "DIGSA; Example 6, 21 DAT, g ai/ha A-1 12.5, B-5 1066, C-11 400, growth stage 21-22, height 15-20 cm", "result": 20, "unit": "%"}, {"measurement": "% Herbicidal activity", "setting": "CYPES; g ai/ha A-1 12.5, B-5 1066, C-11 655", "result": 18, "unit": "%"}, {"measurement": "% Herbicidal activity", "setting": "CYPES; g ai/ha A-1 50, B-5 1066, C-11 655", "result": 18, "unit": "%"}, {"measurement": "% Herbicidal activity", "setting": "DATST", "result": 50, "unit": "%"}, {"measurement": "% Herbicidal activity", "setting": "ZEAMX; Example 6, 7 DAT, g ai/ha A-1 12.5, B-5 1066, C-11 400, height 25-30 cm", "result": 40, "unit": "%"}, {"measurement": "% Herbicidal activity", "setting": "ZEAMX; Example 6, 28 DAT, g ai/ha A-1 12.5, B-5 1066, C-11 400, height 50-60 cm", "result": 70, "unit": "%"}, {"measurement": "% Herbicidal activity", "setting": "ZEAMX; [4]", "result": 40, "unit": "%"}, {"measurement": "% Herbicidal activity", "setting": "SETVE; 7 DAT", "result": 55, "unit": "%"}, {"measurement": "% Herbicidal activity", "setting": "SETVE; 21 DAT", "result": 40, "unit": "%"}, {"measurement": "% Herbicidal activity", "setting": "HORVW; Example 6, 28 DAT, g ai/ha A-1 12.5, B-5 1066, C-11 400", "result": 30, "unit": "%"}, {"measurement": "% Herbicidal activity", "setting": "HORVW; [5]", "result": 10, "unit": "%"}]}, {"smiles": "CNC.O=C(O)COc1ccc(Cl)cc1Cl", "note": "[B-4, 2,4-D-dimethylammonium]", "values": [{"measurement": "% Herbicidal activity", "setting": "ECHCG; [3]", "result": 0, "unit": "%"}, {"measurement": "% Herbicidal activity", "setting": "ECHCG; [6]", "result": 0, "unit": "%"}, {"measurement": "% Herbicidal activity", "setting": "ZEAMX; Example 5, 21 DAT, g ai/ha A-1 12.5, B-4 1066, height 50-60 cm", "result": 0, "unit": "%"}, {"measurement": "% Herbicidal activity", "setting": "ZEAMX; [4]", "result": 0, "unit": "%"}, {"measurement": "% Herbicidal activity", "setting": "ZEAMX; [7]", "result": 0, "unit": "%"}, {"measurement": "% Herbicidal activity", "setting": "ZEAMX; [1]", "result": 0, "unit": "%"}, {"measurement": "% Herbicidal activity", "setting": "HORVW; Example 5, 7 DAT, g ai/ha A-1 12.5, B-4 1066", "result": 0, "unit": "%"}, {"measurement": "% Herbicidal activity", "setting": "HORVW; [5]", "result": 0, "unit": "%"}, {"measurement": "% Herbicidal activity", "setting": "HORVW; [8]", "result": 0, "unit": "%"}, {"measurement": "% Herbicidal activity", "setting": "HORVW; [2]", "result": 0, "unit": "%"}]}, {"smiles": "CP(=O)(O)CC[C@H](N)C(=O)O.N", "note": "[C-12, glufosinate-P-ammonium]", "values": [{"measurement": "% Herbicidal activity", "setting": "ECHCG; Example 8, 7 DAT, g ai/ha A-1 12.5, B-5 1066, C-12 252, growth stage 23-30, height 15-20 cm", "result": 50, "unit": "%"}, {"measurement": "% Herbicidal activity", "setting": "ECHCG; Example 8, 21 DAT, g ai/ha A-1 12.5, B-5 1066, C-12 252, growth stage 23-30, height 15-20 cm", "result": 70, "unit": "%"}, {"measurement": "% Herbicidal activity", "setting": "ECHCG; Example 8, 28 DAT, g ai/ha A-1 12.5, B-5 1066, C-12 252, growth stage 23-30, height 15-20 cm", "result": 60, "unit": "%"}, {"measurement": "% Herbicidal activity", "setting": "ECHCG; [6]", "result": 60, "unit": "%"}, {"measurement": "% Herbicidal activity", "setting": "ZEAMX; Example 8, 28 DAT, g ai/ha A-1 12.5, B-5 1066, C-12 252, height 50-60 cm", "result": 70, "unit": "%"}, {"measurement": "% Herbicidal activity", "setting": "ZEAMX; [7]", "result": 60, "unit": "%"}, {"measurement": "% Herbicidal activity", "setting": "HORVW; Example 8, 21 DAT, g ai/ha A-1 12.5, B-5 1066, C-12 252", "result": 20, "unit": "%"}, {"measurement": "% Herbicidal activity", "setting": "HORVW; [8]", "result": 60, "unit": "%"}]}, {"smiles": "O=C(O)CNCP(=O)(O)O", "note": "[C-10, glyphosate-potassium]", "values": [{"measurement": "% Herbicidal activity", "setting": "ECHCG; 13 DAT, g ai/ha A-1 12.5, B-5 1066, C-10 840, growth stage 21-26, height 15-30 cm, water volume 187 l/ha", "result": 90, "unit": "%"}, {"measurement": "% Herbicidal activity", "setting": "ECHCG; 13 DAT, g ai/ha A-1 25, B-5 1066, C-10 840, growth stage 21-26, height 15-30 cm, water volume 187 l/ha", "result": 90, "unit": "%"}, {"measurement": "% Herbicidal activity", "setting": "ECHCG; 13 DAT, g ai/ha A-1 50, B-5 1066, C-10 840, growth stage 21-26, height 15-30 cm, water volume 187 l/ha", "result": 90, "unit": "%"}, {"measurement": "% Herbicidal activity", "setting": "SETVI", "result": 93, "unit": "%"}, {"measurement": "% Herbicidal activity", "setting": "AMAPA; g ai/ha A-1 12.5, B-5 1066, C-10 840", "result": 22, "unit": "%"}, {"measurement": "% Herbicidal activity", "setting": "AMAPA; g ai/ha A-1 25, B-5 1066, C-10 840", "result": 22, "unit": "%"}, {"measurement": "% Herbicidal activity", "setting": "DIGSA; 15 DAT, g ai/ha A-1 12.5, B-5 1066, C-10 840, growth stage 13-19, height 2-13 cm, water volume 140 l/ha", "result": 93, "unit": "%"}]}]}
